Tests used:
[1] = system: Escherichia coli; experiment: Antimicrobial activity against Escherichia coli 25922 assessed as absence bacterial growth measured after 18 to 24 hrs incubation by NCCLS method; format: functional; details: time 18-24 hrs
[2] = system: Escherichia coli; experiment: Antimicrobial activity against Escherichia coli K88 assessed as absence bacterial growth measured after 18 to 24 hrs incubation by NCCLS method; format: functional; details: time 18-24 hrs
[3] = system: Salmonella typhimurium; experiment: Antimicrobial activity against Salmonella typhimurium 14028 assessed as absence bacterial growth measured after 18 to 24 hrs incubation by NCCLS method; format: functional, Salmonella enterica subsp. enterica serovar Typhimurium; details: Salmonella enterica, time 18-24 hrs
[4] = Antimicrobial activity against Salmonella pullorum C7913 assessed as absence bacterial growth measured after 18 to 24 hrs incubation by NCCLS method; format: functional, Salmonella enterica subsp. enterica serovar Pullorum; details: Salmonella enterica, time 18-24 hrs
[5] = system: Pseudomonas aeruginosa; experiment: Antimicrobial activity against Pseudomonas aeruginosa 27853 assessed as absence bacterial growth measured after 18 to 24 hrs incubation by NCCLS method; format: functional; details: time 18-24 hrs
[6] = system: Acinetobacter baumannii; experiment: Antimicrobial activity against Acinetobacter baumannii 1.6769 assessed as absence bacterial growth measured after 18 to 24 hrs incubation by NCCLS method; format: functional; details: time 18-24 hrs
[7] = system: Enterococcus faecalis; experiment: Antimicrobial activity against Enterococcus faecalis 29212 assessed as absence bacterial growth measured after 18 to 24 hrs incubation by NCCLS method; format: functional; details: time 18-24 hrs
[8] = system: Listeria monocytogenes; experiment: Antimicrobial activity against Listeria monocytogenes 1.10753 assessed as absence bacterial growth measured after 18 to 24 hrs incubation by NCCLS method; format: functional; details: time 18-24 hrs
[9] = system: Bacillus cereus; experiment: Antimicrobial activity against Bacillus cereus 1.932 assessed as absence bacterial growth measured after 18 to 24 hrs incubation by NCCLS method; format: functional; details: time 18-24 hrs
[10] = system: Staphylococcus aureus; experiment: Antimicrobial activity against Staphylococcus aureus 29213 assessed as absence bacterial growth measured after 18 to 24 hrs incubation by NCCLS method; format: functional; details: time 18-24 hrs
[11] = system: Staphylococcus aureus; experiment: Antimicrobial activity against Methicillin-resistant Staphylococcus aureus 43300 assessed as absence bacterial growth measured after 18 to 24 hrs incubation by NCCLS method; format: functional; details: time 18-24 hrs
[12] = system: Staphylococcus epidermidis; experiment: Antimicrobial activity against Staphylococcus epidermidis 12228 assessed as absence bacterial growth measured after 18 to 24 hrs incubation by NCCLS method; format: functional; details: time 18-24 hrs
[13] = system: Staphylococcus aureus; experiment: Antimicrobial activity against Staphylococcus aureus 29213 assessed as absence bacterial growth measured after 18 to 24 hrs incubation by NCCLS m; format: functional; details: time 18-24 hrs
[14] = system: Escherichia coli; experiment: Antimicrobial activity against Escherichia coli 25922 assessed as bacterial killing measured after 16 hrs incubation; format: functional
[15] = system: Escherichia coli; experiment: Antimicrobial activity against Escherichia coli K88 assessed as bacterial killing measured after 16 hrs incubation; format: functional
[16] = system: Salmonella typhimurium; experiment: Antimicrobial activity against Salmonella typhimurium 14028 assessed as bacterial killing measured after 16 hrs incubation; format: functional, Salmonella enterica subsp. enterica serovar Typhimurium; details: Salmonella enterica
[17] = system: Salmonella typhimurium; experiment: Antimicrobial activity against Salmonella typhimurium C7731 assessed as bacterial killing measured after 16 hrs incubation; format: functional, Salmonella enterica subsp. enterica serovar Typhimurium; details: Salmonella enterica
[18] = Antimicrobial activity against Salmonella pullorum C7913 assessed as bacterial killing measured after 16 hrs incubation; format: functional, Salmonella enterica subsp. enterica serovar Pullorum; details: Salmonella enterica
[19] = system: Pseudomonas aeruginosa; experiment: Antimicrobial activity against Pseudomonas aeruginosa 27853 assessed as bacterial killing measured after 16 hrs incubation; format: functional
[20] = system: Acinetobacter baumannii; experiment: Antimicrobial activity against Acinetobacter baumannii 1.6769 assessed as bacterial killing measured after 16 hrs incubation; format: functional
[21] = system: Enterococcus faecalis; experiment: Antimicrobial activity against Enterococcus faecalis 29212 assessed as bacterial killing measured after 16 hrs incubation; format: functional
[22] = system: Listeria monocytogenes; experiment: Antimicrobial activity against Listeria monocytogenes 1.10753 assessed as bacterial killing measured after 16 hrs incubation; format: functional
[23] = system: Bacillus cereus; experiment: Antimicrobial activity against Bacillus cereus 1.932 assessed as bacterial killing measured after 16 hrs incubation; format: functional
[24] = system: Staphylococcus aureus; experiment: Antimicrobial activity against Staphylococcus aureus 29213 assessed as bacterial killing measured after 16 hrs incubation; format: functional
[25] = system: Staphylococcus aureus; experiment: Antimicrobial activity against Methicillin-resistant Staphylococcus aureus 43300 assessed as bacterial killing measured after 16 hrs incubation; format: functional
[26] = system: Staphylococcus epidermidis; experiment: Antimicrobial activity against Staphylococcus epidermidis 12228 assessed as bacterial killing measured after 16 hrs incubation; format: functional
[27] = system: Staphylococcus aureus; experiment: Antimicrobial activity against Staphylococcus aureus 25923 assessed as bacterial killing measured after 16 hrs incubation; format: functional
[28] = system: Salmonella typhimurium; experiment: Antimicrobial activity against Salmonella typhimurium C7731 assessed as absence bacterial growth measured after 18 to 24 hrs incubation by NCCLS method; format: functional, Salmonella enterica subsp. enterica serovar Typhimurium; details: Salmonella enterica, time 18-24 hrs
[29] = system: Escherichia coli; experiment: Antimicrobial activity against Escherichia coli 25922 assessed as absence bacterial growth measured after 18 to 24 hrs incubation in presence of 50% serum by NCCLS method; format: functional; details: time 18-24 hrs
[30] = system: Escherichia coli; experiment: Antimicrobial activity against Escherichia coli 25922 assessed as absence bacterial growth measured after 18 to 24 hrs incubation in presence of 25% serum by NCCLS method; format: functional; details: time 18-24 hrs
[31] = system: Escherichia coli; experiment: Antimicrobial activity against Escherichia coli 25922 assessed as absence bacterial growth measured after 18 to 24 hrs incubation in presence of 12.5% serum by NCCLS method; format: functional; details: time 18-24 hrs
[32] = system: Escherichia coli; experiment: Antimicrobial activity against Escherichia coli 25922 assessed as absence bacterial growth measured after 18 to 24 hrs incubation in presence of NaCl by NCCLS method; format: functional; details: time 18-24 hrs
[33] = system: Escherichia coli; experiment: Antimicrobial activity against Escherichia coli 25922 assessed as absence bacterial growth measured after 18 to 24 hrs incubation in presence of KCl by NCCLS method; format: functional; details: time 18-24 hrs
[34] = system: Escherichia coli; experiment: Antimicrobial activity against Escherichia coli 25922 assessed as absence bacterial growth measured after 18 to 24 hrs incubation in presence of NH4Cl by NCCLS method; format: functional; details: time 18-24 hrs
[35] = system: Escherichia coli; experiment: Antimicrobial activity against Escherichia coli 25922 assessed as absence bacterial growth measured after 18 to 24 hrs incubation in presence of MgCl2 by NCCLS method; format: functional; details: time 18-24 hrs
[36] = system: Escherichia coli; experiment: Antimicrobial activity against Escherichia coli 25922 assessed as absence bacterial growth measured after 18 to 24 hrs incubation in presence of ZnCl2 by NCCLS method; format: functional; details: time 18-24 hrs
[37] = system: Escherichia coli; experiment: Antimicrobial activity against Escherichia coli 25922 assessed as absence bacterial growth measured after 18 to 24 hrs incubation in presence of FeCl3 by NCCLS method; format: functional; details: time 18-24 hrs
[38] = system: Erythrocyte; experiment: Hemolytic activity in human RBC at effective concentration measured after 1 hr by microplate reader analysis; format: toxicity, cell-based
[39] = Cytotoxicity against mouse RAW264.7 cells assessed as cell survival rate measured after 8 hrs by MTT assay; format: toxicity, cell-based
[40] = Cytotoxicity against human HEK-293T cells assessed as cell survival rate measured after 8 hrs by MTT assay; format: toxicity, cell-based
[41] = Cytotoxicity against porcine IPEC-J2 cells assessed as cell survival rate measured after 8 hrs by MTT assay; format: toxicity, cell-based, Sus scrofa; details: pig

H-GKLWLKGIKLWLKGGKLWLKG-NH2
8 µM: MIC [10] | MBC [17] | MBC [19] | MBC [21] | MBC [24] | MIC [28] | MIC [35]
2 µM: MIC [1] | MIC [3] | MIC [6] | MIC [9] | MIC [11] | MBC [14] | MBC [16] | MBC [20] | MBC [23] | MBC [25] | MIC [33] | MIC [34] | MIC [36] | MIC [37]
33.5 µM: IC50 at 8 h [40]
64 µM: HC10 [38]
16 µM: MIC [31]
> 32 µM: MIC [8] | MBC [22] | MIC [29] | MIC [30]
18.9 µM: IC50 at 8 h [41]
1 µM: MIC [2] | MIC [4] | MBC [15] | MBC [18]
36.9 µM: IC50 at 8 h [39]
4 µM: MIC [5] | MIC [7] | MIC [12] | MIC [13] | MBC [26] | MBC [27] | MIC [32]

H-GKLWLKGLKLWLKGGKLWLKG-NH2
21.1 µM: IC50 at 8 h [41]
2 µM: MIC [1] | MIC [6] | MIC [11] | MIC [12] | MBC [14] | MBC [20] | MBC [25] | MIC [33] | MIC [34] | MIC [36] | MIC [37]
> 32 µM: MIC [8] | MBC [22] | MIC [29] | MIC [30]
1 µM: MIC [2] | MIC [3] | MIC [4] | MBC [15] | MBC [16] | MBC [18]
16 µM: MBC [17] | MIC [31]
47.2 µM: IC50 at 8 h [40]
32 µM: MBC [19]
4 µM: MIC [5] | MIC [7] | MIC [9] | MIC [10] | MIC [13] | MBC [21] | MBC [23] | MBC [24] | MBC [26] | MIC [28] | MIC [32] | MIC [35]
64 µM: HC10 [38]
8 µM: MBC [27]
32.7 µM: IC50 at 8 h [39]

H-GKLWLKGMKLWLKGGKLWLKG-NH2
128 µM: HC10 [38]
21 µM: IC50 at 8 h [41]
4 µM: MIC [5] | MIC [7] | MIC [10] | MIC [12] | MIC [13] | MBC [24] | MBC [26] | MIC [28]
32 µM: MIC [31]
> 32 µM: MIC [8] | MBC [22] | MIC [29] | MIC [30]
8 µM: MBC [17] | MBC [19] | MBC [21] | MIC [32] | MIC [35]
> 64 µM: IC50 at 8 h [39] | IC50 at 8 h [40]
2 µM: MIC [1] | MIC [3] | MIC [11] | MBC [14] | MBC [16] | MBC [23] | MBC [25] | MIC [33] | MIC [34] | MIC [36] | MIC [37]
1 µM: MIC [2] | MIC [4] | MIC [6] | MIC [9] | MBC [15] | MBC [18] | MBC [20]
16 µM: MBC [27]
